Results published in US20210290604A1, “COMPOUNDS FOR TREATMENT OF INFLAMMATORY BOWEL DISEASE AND METHODS THEREOF” (priority 2018, published 2021).

Test system: TNBS-induced colitis
Assay: TNBS-induced colitis in mice, oral dosing once a day Days 1-7
Format: in vivo, female SJL mice
Design: Disease Activity Index, Mean / Fecal Consistency, Mean: scale not given here
Conditions: for Colon Length, Mean / Colon Weight, Mean / Colon Weight/Length ratio, Mean: at euthanasia; for Histopathological severity score, Mean: colon H&E, score 0-4; for overall conclusion as compared to TNBS-vehicle (in words): oral
Procedure: Healthy young female SJL mice were used for the study. At the commencement of the study, the mice were between 8-9 weeks of age, weighing 20-22 g. All the mice were obtained from The Jackson Laboratory, Bar Harbor, Me. 04609 USA.
After seven days of acclimatization, mice were grouped according to their body weight. There was one group of ten mice and five groups of fifteen mice each. Five groups of fifteen mice each were challenged intra-rectally with 100 μl of 2.0% TNBS in 50% EtOH and other group of ten mice were challenged intra-rectally with 100 μl of 50% EtOH and serve as No-TNBS control. The experimental groups were as follows:
The mice were challenged intra-rectally with 100 μl of 2% TNBS in 50% ethanol under light anesthesia with ketamine/xylazine. The test compounds were administrated an hour prior to intra-rectal administration of TNBS as per scheduled daily dosing.
Vehicle and no-TNBS control groups received 0.5% CMC orally from Day 1 to Day 7.
Body Weight: The body weights were measured daily for 1-7 days using a laboratory balance.
Disease Activity Index: The clinical assessment of the mice was performed beginning Day 2 (a day after the intra-rectal administration of TNBS). The clinical assessment includes body weight, stool consistency and the presence of blood in the stools and scored according to Table 2.
Colon Length and Weight: the mice were euthanized using CO2 asphyxiation and colon from the colocecal junction to the anus was removed, washed and cleaned of all fecal matter using PBS. The colon length and weight were measured and then preserved in 10% NBF for histopathology.
Histopathology: Formalin fixed colon samples were submitted to affiliated histopathology laboratory for histopathological analysis subjected to hematoxylin and eosin (H & E) staining using standard techniques. Each colon was trimmed from both ends and mid. All three sections were stained and evaluated.
A board certified veterinarian pathologist assessed the presence of colitis and severity score according to the following criteria: • 0=no sign of inflammation • 1=very low level of inflammation • 2=low level of leukocytic infiltration, low level of inflammation • 3=high level of leukocytic infiltration, high vascular density, inflammation and thickening of colon wall • 4=transmural infiltration, loss of goblet cells, high vascular density, crypt abscesses, thickening of colon wall and ulceration.
The data is presented as the mean±standard error (SEM) obtained from Microsoft Excel or GraphPad Prism version 5.00 for Windows (GraphPad Software, San Diego Calif. USA). The data was analyzed using two-way ANOVA using Bonferroni post-test. Differences between groups were considered significant at p<0.05.

Nc1ccc(O)c(C(=O)O)c1 [5-ASA, 5-Amino-2-hydroxybenzoic acid]
histopathology, cell morphological changes / severity (in words) (100 mg/kg PO QD (Table 1)): statistically significantly reducing cell morphological changes associated with disease
body weight change as compared to the TNBS-vehicle group (in words) (100 mg/kg po): significant improvement beginning on Day 4
Percent Change in Body Weight, Mean (Day 1, 100 mg/kg PO QD): 0.00%
Percent Survivability (Day 1, 100 mg/kg PO QD): 100.000%
Fecal Consistency, Mean (Day 2, 100 mg/kg PO QD): 1.47
Occult Positivity, Mean (Day 2, 100 mg/kg PO QD): 1.33
Percent Change in Body Weight, Mean (Day 2, 100 mg/kg PO QD): −10.01%
Percent Survivability (Day 2, 100 mg/kg PO QD): 100.000%
Occult Positivity, Mean (Day 3, 100 mg/kg PO QD): 2.00
Percent Change in Body Weight, Mean (Day 3, 100 mg/kg PO QD): −10.45%
Percent Survivability (Day 3, 100 mg/kg PO QD): 100.000%
Percent Change in Body Weight, Mean (Day 4, 100 mg/kg PO QD): −9.33%
Percent Survivability (Day 4, 100 mg/kg PO QD): 93.000%
Fecal Consistency, Mean (Day 5, 100 mg/kg PO QD): 1.38
Occult Positivity, Mean (Day 5, 100 mg/kg PO QD): 2.15
Percent Change in Body Weight, Mean (Day 5, 100 mg/kg PO QD): −7.81%
Percent Survivability (Day 5, 100 mg/kg PO QD): 86.670%
Fecal Consistency, Mean (Day 6, 100 mg/kg PO QD): 0.83
Occult Positivity, Mean (Day 6, 100 mg/kg PO QD): 1.67
Percent Change in Body Weight, Mean (Day 6, 100 mg/kg PO QD): −5.87%
Percent Survivability (Day 6, 100 mg/kg PO QD): 80.000%
occult positivity as compared to TNBS-vehicle (in words) (Day 7, 100 mg/kg): significant improvements
Fecal Consistency, Mean (Day 7, 100 mg/kg PO QD): 0.83
Occult Positivity, Mean (Day 7, 100 mg/kg PO QD): 1.17
Percent Change in Body Weight, Mean (Day 7, 100 mg/kg PO QD): −6.09%
Percent Survivability (Day 7, 100 mg/kg PO QD): 80.000%
Colon Length, Mean (100 mg/kg PO QD Days 1-7): 9.08 cm
Colon Weight, Mean (100 mg/kg PO QD Days 1-7): 0.2494 g
Histopathological severity score, Mean (100 mg/kg PO QD Days 1-7): 1.08
overall conclusion as compared to TNBS-vehicle (in words) (100 mg/kg): showed improvement in the colitis, loss of body weight and disease activity index

C[C@@H]([C@H](O)c1ccc(O)cc1)N1CCC(Cc2ccccc2)CC1 (racemic) [Ifenprodil, 4-[2-(4-benzylpiperidin-1-ium-1-yl)-1-hydroxypropyl] phenol; 2,3,4-trihydroxy-4-oxobutanoate]
Disease Activity Index vs TNBS-vehicle group (in words) (30 mg/kg): No significant differences
histopathology, cell morphological changes / severity (in words) (30 mg/kg PO QD (Table 1)): statistically significantly reducing cell morphological changes associated with disease
body weight change as compared to the TNBS-vehicle group (in words) (30 mg/kg po): significant improvement beginning on Day 4
Percent Change in Body Weight, Mean (Day 1, 30 mg/kg PO QD): 0.00%
Percent Survivability (Day 1, 30 mg/kg PO QD): 100.000%
Disease Activity Index, Mean (Day 2, 30 mg/kg PO QD): 1.62
Fecal Consistency, Mean (Day 2, 30 mg/kg PO QD): 1.00
Occult Positivity, Mean (Day 2, 30 mg/kg PO QD): 1.86
Percent Change in Body Weight, Mean (Day 2, 30 mg/kg PO QD): −9.38%
Percent Survivability (Day 2, 30 mg/kg PO QD): 93.000%
Disease Activity Index, Mean (Day 3, 30 mg/kg PO QD): 2.04
Fecal Consistency, Mean (Day 3, 30 mg/kg PO QD): 1.71
Occult Positivity, Mean (Day 3, 30 mg/kg PO QD): 2.14
Percent Change in Body Weight, Mean (Day 3, 30 mg/kg PO QD): −11.31%
Percent Survivability (Day 3, 30 mg/kg PO QD): 93.000%
Disease Activity Index, Mean (Day 4, 30 mg/kg PO QD): 2.14
Fecal Consistency, Mean (Day 4, 30 mg/kg PO QD): 2.00
Occult Positivity, Mean (Day 4, 30 mg/kg PO QD): 2.62
Percent Change in Body Weight, Mean (Day 4, 30 mg/kg PO QD): −9.44%
Percent Survivability (Day 4, 30 mg/kg PO QD): 86.600%
Disease Activity Index, Mean (Day 5, 30 mg/kg PO QD): 1.82
Fecal Consistency, Mean (Day 5, 30 mg/kg PO QD): 1.67
Occult Positivity, Mean (Day 5, 30 mg/kg PO QD): 2.33
Percent Change in Body Weight, Mean (Day 5, 30 mg/kg PO QD): −7.64%
Percent Survivability (Day 5, 30 mg/kg PO QD): 80.000%
Disease Activity Index, Mean (Day 6, 30 mg/kg PO QD): 1.56
Fecal Consistency, Mean (Day 6, 30 mg/kg PO QD): 1.33
Occult Positivity, Mean (Day 6, 30 mg/kg PO QD): 2.00
Percent Change in Body Weight, Mean (Day 6, 30 mg/kg PO QD): −6.68%
Percent Survivability (Day 6, 30 mg/kg PO QD): 80.000%
Disease Activity Index, Mean (Day 7, 30 mg/kg PO QD): 1.41
Fecal Consistency, Mean (Day 7, 30 mg/kg PO QD): 1.17
Occult Positivity, Mean (Day 7, 30 mg/kg PO QD): 1.83
Percent Change in Body Weight, Mean (Day 7, 30 mg/kg PO QD): −6.23%
Percent Survivability (Day 7, 30 mg/kg PO QD): 80.000%
Colon Length, Mean (30 mg/kg PO QD Days 1-7): 8.93 cm
Colon Weight, Mean (30 mg/kg PO QD Days 1-7): 0.2145 g
Colon Weight/Length ratio, Mean (30 mg/kg PO QD Days 1-7): 24.5065 mg/cm
Histopathological severity score, Mean (30 mg/kg PO QD Days 1-7): 1.06
overall conclusion as compared to TNBS-vehicle (in words) (30 mg/kg): showed improvement in colitis as well as in the loss of body weight, DAI, colon length, weight and weight/length ratio

O=C(Nc1ccc2[nH]c(=O)oc2c1)C(=O)N1CCC(Cc2ccc(F)cc2)CC1 [Radiprodil, 2-[4-[(4-fluorophenyl)methyl]piperidin-1-yl]-2-oxo-N-(2-oxo-3H-1,3-benzoxazol-6-yl)acetamide]
Disease Activity Index vs TNBS-vehicle group (in words) (30 mg/kg): No significant differences
histopathology, cell morphological changes / severity (in words) (30 mg/kg PO QD (Table 1)): reduced severity
body weight change as compared to the TNBS-vehicle group (in words) (30 mg/kg po): significant improvement beginning Day 4, with the exception of Day 3
Percent Change in Body Weight, Mean (Day 1, 30 mg/kg PO QD): 0.00%
Percent Survivability (Day 1, 30 mg/kg PO QD): 100.000%
Disease Activity Index, Mean (Day 2, 30 mg/kg PO QD): 1.84
Fecal Consistency, Mean (Day 2, 30 mg/kg PO QD): 1.20
Occult Positivity, Mean (Day 2, 30 mg/kg PO QD): 2.00
Percent Change in Body Weight, Mean (Day 2, 30 mg/kg PO QD): −10.51%
Percent Survivability (Day 2, 30 mg/kg PO QD): 100.000%
Disease Activity Index, Mean (Day 3, 30 mg/kg PO QD): 2.24
Fecal Consistency, Mean (Day 3, 30 mg/kg PO QD): 1.33
Occult Positivity, Mean (Day 3, 30 mg/kg PO QD): 2.53
Percent Change in Body Weight, Mean (Day 3, 30 mg/kg PO QD): −13.08%
Percent Survivability (Day 3, 30 mg/kg PO QD): 100.000%
Disease Activity Index, Mean (Day 4, 30 mg/kg PO QD): 2.13
Fecal Consistency, Mean (Day 4, 30 mg/kg PO QD): 1.23
Occult Positivity, Mean (Day 4, 30 mg/kg PO QD): 2.46
Percent Change in Body Weight, Mean (Day 4, 30 mg/kg PO QD): −10.35%
Percent Survivability (Day 4, 30 mg/kg PO QD): 86.670%
Disease Activity Index, Mean (Day 5, 30 mg/kg PO QD): 1.78
Fecal Consistency, Mean (Day 5, 30 mg/kg PO QD): 1.00
Occult Positivity, Mean (Day 5, 30 mg/kg PO QD): 2.33
Percent Change in Body Weight, Mean (Day 5, 30 mg/kg PO QD): −8.29%
Percent Survivability (Day 5, 30 mg/kg PO QD): 80.000%
Disease Activity Index, Mean (Day 6, 30 mg/kg PO QD): 1.67
Fecal Consistency, Mean (Day 6, 30 mg/kg PO QD): 1.00
Occult Positivity, Mean (Day 6, 30 mg/kg PO QD): 2.17
Percent Change in Body Weight, Mean (Day 6, 30 mg/kg PO QD): −7.58%
Percent Survivability (Day 6, 30 mg/kg PO QD): 80.000%
Disease Activity Index, Mean (Day 7, 30 mg/kg PO QD): 1.50
Fecal Consistency, Mean (Day 7, 30 mg/kg PO QD): 1.00
Occult Positivity, Mean (Day 7, 30 mg/kg PO QD): 1.83
Percent Change in Body Weight, Mean (Day 7, 30 mg/kg PO QD): −6.95%
Percent Survivability (Day 7, 30 mg/kg PO QD): 80.000%
Colon Length, Mean (30 mg/kg PO QD Days 1-7): 8.42 cm
Colon Weight, Mean (30 mg/kg PO QD Days 1-7): 0.3095 g
Colon Weight/Length ratio, Mean (30 mg/kg PO QD Days 1-7): 37.7622 mg/cm
Histopathological severity score, Mean (30 mg/kg PO QD Days 1-7): 1.61
overall conclusion as compared to TNBS-vehicle (in words) (30 mg/kg): showed improvement in colitis as well as in the loss of body weight, DAI, colon length, weight and weight/length ratio
